Assay results reported in ChEMBL document CHEMBL3739378, “Nocarimidazoles A and B from a Marine-Derived Actinomycete of the Genus Nocardiopsis” (2015).
Values after ≈ are worked out from the molar mass of the structure shown. Active and inactive are the calls of the source. The rule behind the calls is not given here.

How the values were obtained:
[1] = test system: A498; test: Cytotoxicity against human A498 cells; format: functional, cell-based
[2] = test system: ACHN; test: Cytotoxicity against human ACHN cells; format: functional, cell-based
[3] = target: Acetylcholinesterase (Homo sapiens) (UniProt P22303); test: Inhibition of AChE (unknown origin) at 100 ug/ml for 15 mins by spectrophotometry
[4] = test system: Bacillus subtilis; test: Antibacterial activity against Bacillus subtilis ATCC 6633 after 24 hrs; format: functional; conditions: ATCC 6633, 24 h
[5] = test system: Staphylococcus epidermidis; test: Antibacterial activity against Staphylococcus epidermidis ATCC 12228 after 24 hrs; format: functional; conditions: ATCC 12228, 24 h

Acetylcholinesterase (Homo sapiens), sequence (P22303 whole entry): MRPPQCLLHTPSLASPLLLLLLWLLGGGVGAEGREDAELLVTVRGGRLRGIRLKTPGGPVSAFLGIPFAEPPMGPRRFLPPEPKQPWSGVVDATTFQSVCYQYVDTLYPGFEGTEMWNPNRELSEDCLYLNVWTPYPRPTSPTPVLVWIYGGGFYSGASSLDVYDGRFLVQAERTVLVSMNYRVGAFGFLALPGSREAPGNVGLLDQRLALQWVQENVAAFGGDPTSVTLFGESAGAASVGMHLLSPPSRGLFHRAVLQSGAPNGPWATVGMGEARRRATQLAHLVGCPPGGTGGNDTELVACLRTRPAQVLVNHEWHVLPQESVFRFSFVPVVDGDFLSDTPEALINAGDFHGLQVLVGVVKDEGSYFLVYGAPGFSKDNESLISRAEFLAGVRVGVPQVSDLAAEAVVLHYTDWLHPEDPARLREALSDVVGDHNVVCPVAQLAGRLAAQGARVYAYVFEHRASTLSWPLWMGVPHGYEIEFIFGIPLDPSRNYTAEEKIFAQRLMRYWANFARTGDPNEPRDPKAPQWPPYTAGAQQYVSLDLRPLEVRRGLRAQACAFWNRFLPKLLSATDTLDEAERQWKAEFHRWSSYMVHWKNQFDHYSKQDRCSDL

## CCC(C)CCCCCCC(=O)c1nc[nH]c1N (centres undefined)
[1]
  Activity: inactive
[2]
  Activity: inactive
[3]
  inhibition: Active
[4]
  MIC: 64 µg/mL (≈ 255 µM)

## CC(C)CCCCCCC(=O)c1nc[nH]c1N
[1]
  Activity: inactive
[2]
  Activity: inactive
[3]
  inhibition: Active
[4]
  MIC: 64 µg/mL (≈ 270 µM)
[5]
  MIC: 64 µg/mL (≈ 270 µM)
